Measurements from patent US10857154B2, “Pharmaceutical composition containing keratin 8 phosphorylation inhibitor for preventing or treating macular degeneration, and method for screening macular degeneration medicine” (priority 2016, dated 2020).
Read-outs that look alike come from different tables or passages of the source.

Tests used:
[1] = tested on: keratin 8 (K8) phosphorylation; experiment: Western blotting of P-ERK1/2 and P-K8 in paraquat-treated retinal pigment epithelial cells; type: cell-based, human
Procedure: In the bar graph analyzed from the image of western blotting, the expression levels of P-ERK and P-K8 were calculated (FIG. 2B).
In the bar graph analyzed from the image of western blotting, the expression levels of P-ERK and P-K8 were calculated (FIG. 4A).
(§1) The same procedures as in Example 3 were performed, and 10 μM gefitinib was used in lieu of 50 nM trametinib.

[2] = tested on: APRE-19 cells and human-tissue-derived RPE cells; experiment: P-K8 immunostaining: reorganization of K8 around the nucleus under paraquat oxidative stress; type: cell-based
Source text: The ARPE-19 cells are cell lines that have been genetically engineered for infinite proliferation for experimental use. However, as the human-tissue-derived RPE cells were obtained by culturing RPE tissue isolated from the human eye without any genetic engineering they were used for experiments under conditions similar to those of human RPE.
Thereafter, P-K8 (green fluorescence) of the cells was immunostained (Abcam; ab32579). The nucleus was stained (Invitrogen; T3605) using TOPRO-3 (blue fluorescence) (FIG. 2C).
P-K8 (green fluorescence) of the cells was immunostained (FIG. 4B).
as §1

[3] = tested on: APRE-19 cells and human-tissue-derived RPE cells; experiment: E-cadherin / vimentin immunostaining: epithelial-mesenchymal transition under paraquat oxidative stress; type: cell-based; details: for E-cadherin expression / vimentin filaments: APRE-19 and human-tissue-derived RPE cells
Procedure: E-cadherin (green fluorescence) and vimentin (red fluorescence) in the cells were immunostained (cell signaling; 7832s). The nucleus was stained using TOPRO-3 (blue fluorescence) (FIG. 3A).
Thereafter, E-cadherin (green fluorescence) and vimentin (red fluorescence) in the cells were immunostained. The nucleus was visualized using TOPRO-3 (blue fluorescence) (FIG. 4C).
as §1

ARPE-19 cells = experiment: Cell motility using a Transwell insert; type: cell-based, human; details: 400 μM paraquat and 20 μM PD98059 for 36 hr, FIG. 3B
Procedure: Also, the cell motility was analyzed using a Transwell insert in ARPE-19 cells selectively treated with 400 μM paraquat and 20 μM PD98059 for 36 hr. As the migrated cells were stained with methylene blue it was confirmed by checking an image (FIG. 3B).

mouse retinal cells = experiment: NaIO3-induced retinal degeneration in mouse, ZO-1 immunohistochemical analysis; type: in vivo; details: 20 mg/kg NaIO3 intravenously, 10 mg/kg PD98059, sacrificed 2 weeks after administration, FIG. 3C
Procedure: 7- to 9-week-old mouse retinal cells were subjected to immunohistochemical analysis (Abcam; ab59720) for a tight junction marker ZO-1 (green fluorescence). A saline-treated group was a control group with intravenous administration of 0.9% NaCl. A mouse group administered intravenously with 20 mg/kg of NaIO3 was selectively treated with 10 mg/kg of PD98059. Animal groups were sacrificed 2 weeks after intravenous administration. The fluorescence images were obtained through a confocal microscope (FIG. 3C).

[4] = APRE-19 cells, 400 μM paraquat 24 hr, then 20 μM PD98059 24 hr, FIG. 2B
[5] = 400 μM paraquat and 20 μM PD98059 for 48 hr, FIG. 3A
[6] = 400 μM paraquat and 10 μM gefitinib for 48 hr, FIG. 5C

Structure (SMILES) | K8 phosphorylation due to oxidative stress (P-ERK and P-K8 expression levels) [1, 4] | expression of LC3 I/II, the autophagy marker [1, 4] | effect of inhibiting K8 phosphorylation due to oxidative stress (P-K8 expression level) ([1]; APRE-19 cells, 400 μM paraquat 24 hr, then 20 μM PD98059 24 hr, compared to 10 μM SP600125, FIG. 2A) | reorganization of K8 around the nucleus ([2]; APRE-19 and human-tissue-derived RPE cells, 400 μM paraquat and 20 μM PD98059 for 36 hr, FIG. 2C) | epithelial-mesenchymal transition [3, 5] | E-cadherin expression [3, 5] | vimentin filaments [3, 5] | cell motility (ARPE-19 cells) | degeneration of retinal cells (tight junction marker ZO-1) (mouse retinal cells) | K8 phosphorylation due to oxidative stress (P-ERK and P-K8 expression levels) [1] | reorganization of K8 around the nucleus ([2]; APRE-19 cells, 400 μM paraquat and 10 μM gefitinib for 36 hr, FIG. 5B) | epithelial-mesenchymal transition [3, 6] | E-cadherin expression [3, 6] | vimentin filaments [3, 6]
COc1cccc(-c2cc(=O)c3ccccc3o2)c1N [PD98059] | inhibited K8 phosphorylation | not involved in the expression of LC3 I/II | superior | inhibited reorganization of K8 around the nucleus | reduce epithelial-mesenchymal transition | recovered E-cadherin lost | inhibited an increase in vimentin filaments | reduced increased cell motility | restored the degeneration of retinal cells |  |  |  |  | 
COc1cc2ncnc(Nc3ccc(F)c(Cl)c3)c2cc1OCCCN1CCOCC1 [gefitinib] |  |  |  |  |  |  |  |  |  | inhibited phosphorylation of K8 | inhibited reorganization of K8 around the nucleus | reduce epithelial-mesenchymal transition | recovered E-cadherin lost | inhibited the increase in vimentin filaments
